The source of these data is the NIST ThermoML archive (doi:10.1016/j.fluid.2017.05.008).

A short description of the data set: an = ratio of the nth substance listed. Particulars: 298.15 K; for surface tension liquid-gas: Ring tensiometer; for viscosity: 101 kPa, Liquid, Concentric cylinders viscometry.

SMILES strings stand for the structures. ± gives the expanded uncertainty stated by the source.

In general, surface tension liquid-gas refers to the force per length acting along the surface. As a reminder, the viscosity is the resistance of a fluid to flow. `C[N+](C)(C)CCO.[Cl-]` [choline chloride] + OCCO: for the setting “a2 = 2”, the surface tension liquid-gas is given as 56.5 ± 0.6 mN/m and the viscosity stood at 40 ± 2 mPa·s.
As to `C[N+](C)(C)CCO.[Cl-]` [choline chloride] + OCC(O)CO, under “a2 = 2”, the surface tension liquid-gas turned out to be 68.7 ± 1.1 mN/m and the viscosity amounted to 296 ± 32 mPa·s.
Regarding `O.O.O=C(O)C(=O)O` [ethanedioic acid dihydrate] + C[N+](C)(C)CCO.[Cl-], where the note is “a1 = 1”, the surface tension liquid-gas came out at 60.8 ± 1 mN/m and the viscosity came to 767 ± 140 mPa·s.
As for `NC(N)=O` [urea] + C[N+](C)(C)CCO.[Cl-], where the note is “a1 = 2”, the surface tension liquid-gas amounted to 71.6 ± 1.2 mN/m and the viscosity stood at 849 ± 150 mPa·s.
Consider `OCCCCCO` [1,5-pentanediol] + C[N+](C)(C)CCO.[Cl-], for which, where the note is “a1 = 3.5”, the surface tension liquid-gas is given as 47.5 ± 0.8 mN/m and the viscosity was found to be 110 ± 7 mPa·s.
Regarding `OCCCCO` [1,4-butanediol] + C[N+](C)(C)CCO.[Cl-], for the setting “a1 = 3”, the surface tension liquid-gas was determined as 55.8 ± 0.9 mN/m and the viscosity was 94 ± 6 mPa·s.
